One may read the Ki as the equilibrium dissociation constant of an inhibitor or competing ligand from its target.

These results are taken from patent US11014911B2, “CDK2 inhibitors” (Pfizer Inc., priority 2019, dated 2021).

For the assay, the target named is CDK2/Cyclin E1 full length (Homo sapiens (Human), UniProt P24941). The assay is described as follows: CDK2/Cyclin E1 full length mobility shift assay. In kind it is biochemical.
Experimental: Cdk2/Cyclin E1 Full Length Mobility Shift Assay
Wild-type CDK2/wild-type full length Cyclin E1 enzyme complex was produced in-house (baculoviral expression, LJIC-2080/LJIC-2103) and phosphorylated by CDK7/Cyclin H1/Matl enzyme complex with CDK2:CDK7 ratio of 50:1 (concentration mg/mL) in the presence of 10 mM MgCl2 and 5 mM ATP at room temperature for one hour. […] The assay was initiated with the addition of ATP, following a fifteen minutes pre-incubation of enzyme and inhibitor at room temperature in the reaction mixture. The reaction was stopped after 45 minutes at room temperature by the addition of 50 μL of 80 mM EDTA.
For the compound `CC[C@H](C)NC(=O)O[C@@H]1CC[C@H](c2cc(NC(=O)Cc3cc(OC)ncc3OC)n[nH]2)C1` [Example 358, (1R,3S)-3-(3-{[(2,5-dimethoxypyridin-4-yl)acetyl]amino}-1H-pyrazol-5-yl)cyclopentyl (2S)-butan-2-ylcarbamate], the Ki was 1.65 nM.

For `CC[C@H](C)NC(=O)O[C@@H]1CC[C@H](c2cc(NC(=O)Cc3ccc(C(F)(F)F)cn3)n[nH]2)C1` [Example 360, (1R,3S)-3-[3-({[5-(trifluoromethyl)pyridin-2-yl]acetyl}amino)-1H-pyrazol-5-yl]cyclopentyl (2S)-butan-2-ylcarbamate], the inhibitory constant (Ki) turned out to be 1.46 nM.

`CC[C@H](C)NC(=O)O[C@@H]1CC[C@H](c2cc(NC(=O)Cc3cncc(C(F)(F)F)n3)n[nH]2)C1` [Example 362, (1R,3S)-3-[3-({[6-(trifluoromethyl)pyrazin-2-yl]acetyl}amino)-1H-pyrazol-5-yl]cyclopentyl (2S)-butan-2-ylcarbamate]: the Ki was found to be 0.84 nM.

Take `CC[C@H](C)NC(=O)O[C@@H]1CC[C@H](c2cc(NC(=O)Cc3cnn(C)c3C(F)(F)F)n[nH]2)C1` [Example 365, (1R,3S)-3-[3-({[1-methyl-5-(trifluoromethyl)-1H-pyrazol-4-yl]acetyl}amino)-1H-pyrazol-5-yl]cyclopentyl (2S)-butan-2-ylcarbamate]: the Ki is 2.08 nM.

Regarding `CC[C@H](C)NC(=O)O[C@@H]1CC[C@H](c2cc(NC(=O)Cc3cn(CC(F)(F)F)nn3)n[nH]2)C1` [Example 366, (1R,3S)-3-[3-({[1-(2,2,2-trifluoroethyl)-1H-1,2,3-triazol-4-yl]acetyl}amino)-1H-pyrazol-5-yl]cyclopentyl (2S)-butan-2-ylcarbamate], the Ki was 1.79 nM.

Turning to `CC[C@H](C)NC(=O)O[C@@H]1CC[C@H](c2cc(NC(=O)Cc3c(S(C)(=O)=O)c4ccccc4n3C)n[nH]2)C1` [Example 377, (1R,3S)-3-[3-({[1-methyl-3-(methylsulfonyl)-1H-indol-2-yl]acetyl}amino)-1H-pyrazol-5-yl]cyclopentyl (2S)-butan-2-ylcarbamate], the Ki was 1.14 nM.

For the compound `C[C@@H](CF)NC(=O)O[C@@H]1CC[C@H](c2cc(NC(=O)Cc3cnn(C)c3)n[nH]2)C1` [Example 378, (1R,3S)-3-(3-{[(1-methyl-1H-pyrazol-4-yl)acetyl]amino}-1H-pyrazol-5-yl)cyclopentyl [(2S)-1-fluoropropan-2-yl]carbamate], the Ki came out at 0.83 nM.

As to `Cc1cnc(CC(=O)Nc2cc([C@H]3CC[C@@H](OC(=O)N[C@@H](C)CF)C3)[nH]n2)o1` [Example 379, (1R,3S)-3-(3-{[(5-methyl-1,3-oxazol-2-yl)acetyl]amino}-1H-pyrazol-5-yl)cyclopentyl [(2S)-1-fluoropropan-2-yl]carbamate], the Ki amounted to 3.05 nM.

For the compound `C[C@H](NC(=O)O[C@@H]1CC[C@H](c2cc(NC(=O)Cc3cnn(C)c3)n[nH]2)C1)[C@@H](C)F` [Example 380, (1R,3S)-3-(3-{[(1-methyl-1H-pyrazol-4-yl)acetyl]amino}-1H-pyrazol-5-yl)cyclopentyl [(2S,3R)-3-fluorobutan-2-yl]carbamate], the Ki was 0.63 nM.

For `Cc1coc(CC(=O)Nc2cc([C@H]3CC[C@@H](OC(=O)N[C@H](C)CC(F)(F)F)C3)[nH]n2)n1` [Example 395, (1R,3S)-3-(3-{[(4-methyl-1,3-oxazol-2-yl)acetyl]amino}-1H-pyrazol-5-yl)cyclopentyl [(2R)-4,4,4-trifluorobutan-2-yl]carbamate], the Ki turned out to be 1.43 nM.

With `COc1cc(C(=O)Nc2cc([C@H]3CC[C@@H](OC(=O)N[C@H](C)CC(F)(F)F)C3)[nH]n2)n(C)n1` [Example 402, (1R,3S)-3-(3-{[(3-methoxy-1-methyl-1H-pyrazol-5-yl)carbonyl]amino}-1H-pyrazol-5-yl)cyclopentyl [(2R)-4,4,4-trifluorobutan-2-yl]carbamate], the Ki is 1.54 nM.
